Square brackets hold non-standard residues; d marks the D form. Peptide text beside a SMILES is read from it. hArg = N=C(N)NCCCC[C@H](N)C(=O)O; Nle = CCCC[C@H](N)C(=O)O; Orn = NCCC[C@H](N)C(=O)O
Tests used:
[1] = target: T1, cultured rat pituitary cells (Rattus norvegicus, UniProt P35353); assay: Stimulation of ACTH and β-endorphin secretion by cultured rat pituitary cells (general procedure of Example III); format: cell-based; settings: general procedure of Example III
T1 sequence (P35353 24-415): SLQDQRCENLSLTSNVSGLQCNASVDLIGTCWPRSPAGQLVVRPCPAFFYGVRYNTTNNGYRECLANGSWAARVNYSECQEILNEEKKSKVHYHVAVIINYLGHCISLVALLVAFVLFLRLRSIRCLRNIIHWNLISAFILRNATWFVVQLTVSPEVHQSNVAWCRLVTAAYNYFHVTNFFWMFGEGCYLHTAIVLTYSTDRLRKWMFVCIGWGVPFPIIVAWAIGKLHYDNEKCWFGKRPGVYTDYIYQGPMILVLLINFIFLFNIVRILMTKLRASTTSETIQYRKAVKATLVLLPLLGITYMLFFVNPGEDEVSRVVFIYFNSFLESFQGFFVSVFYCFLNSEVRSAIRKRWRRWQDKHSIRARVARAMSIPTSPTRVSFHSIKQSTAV
Experimental: The synthetic peptide AHC and oCRF were examined for their effects on the secretion of ACTH and B-endorphin in vitro and was also in vivo. The potency of synthetic oCRF to stimulate the secretion of ACTH and β-endorphin by cultured rat pituitary cells was measured using the procedure as generally set forth in Endocrinology, 91, 562 (1972). […] In.vivo testing is carried out using the general procedure set forth in C. Rivier et al., Science, 218, 377 (1982).

[2] = Lowering of blood pressure, in vivo testing by the general procedure of Example III

Row | Compound | secretion of ACTH and β-END-LI [1] | lowering of blood pressure [2]
1 | CCCC[C@H](NC(=O)[C@H](CCC(=O)O)NC(=O)[C@H](CCCNC(=N)N)NC(=O)[C@H](CC(C)C)NC(=O)[C@H](CC(C)C)NC(=O)[C@H](Cc1c[nH]cn1)NC(=O)[C@H](Cc1ccccc1)NC(=O)[C@@H](NC(=O)[C@H](CC(C)C)NC(=O)[C@H](CC(=O)O)NC(=O)[C@H](CC(C)C)NC(=O)[C@H](CO)NC(=O)[C@@H](NC(=O)[C@@H]1CCCN1C(=O)[C@@H]1CCCN1C(=O)[C@H](CCC(=O)O)NC(=O)[C@@H](N)CCC(N)=O)[C@@H](C)CC)[C@@H](C)O)C(=O)N[C@@H](CC(C)C)C(=O)N[C@@H](CCC(=O)O)C(=O)N[C@@H](CCSC)C(=O)N[C@H](C(=O)N[C@@H](CCCCN)C(=O)N[C@@H](C)C(=O)N[C@@H](CC(=O)O)C(=O)N[C@@H](CCC(N)=O)C(=O)N[C@@H](CC(C)C)C(=O)N[C@@H](C)C(=O)N[C@@H](CCC(N)=O)C(=O)N[C@@H](CCC(N)=O)C(=O)N[C@@H](C)C(=O)N[C@@H](Cc1c[nH]cn1)C(=O)N[C@@H](CO)C(=O)N[C@@H](CC(N)=O)C(=O)N[C@@H](CCCNC(=N)N)C(=O)N[C@@H](CCCCN)C(=O)N[C@@H](Cc1ccc(O)cc1)C(=O)N[C@@H](CC(C)C)C(=O)N[C@@H](CC(=O)O)C(=O)N[C@@H](CCC(=O)O)C(=O)N[C@@H](C)C(N)=O)[C@@H](C)O [[Nle^18,Tyr^37,Glu^40]-oCRF(2-41)] (H-QEPPISLDLTFHLLRE[Nle]LEMTKADQLAQQAHSNRKYLDEA-NH2) | stimulates | very significant lowering of blood pressure
2 | Ac-GEEPPISLDLTFHLLREVLEMARAEQLAQQAHLNRKLMEEI-NH2 [[Acetyl-Gly^1, Leu^33, Glu^40]-rCRF] | stimulates | very significant lowering of blood pressure
3 | CCCC[C@H](NC(=O)[C@H](CCC(=O)O)NC(=O)[C@H](CC(C)C)NC(=O)[C@H](CCCC)NC(=O)[C@H](CCC(=O)O)NC(=O)[C@H](CCCNC(=N)N)NC(=O)[C@H](CC(C)C)NC(=O)[C@H](CC(C)C)NC(=O)[C@H](Cc1c[nH]cn1)NC(=O)[C@H](Cc1ccccc1)NC(=O)[C@@H](NC(=O)[C@H](CC(C)C)NC(=O)[C@H](CC(=O)O)NC(=O)[C@H](CC(C)C)NC(=O)[C@H](CO)NC(=O)[C@@H](NC(=O)[C@@H]1CCCN1)[C@@H](C)CC)[C@@H](C)O)C(=O)N[C@@H](C)C(=O)N[C@@H](CCCNC(=N)N)C(=O)N[C@@H](C)C(=O)N[C@@H](CCC(=O)O)C(=O)N[C@@H](CCC(N)=O)C(=O)N[C@@H](CCC(=O)O)C(=O)N[C@@H](C)C(=O)N[C@@H](CCC(=O)O)C(=O)N[C@@H](CCC(N)=O)C(=O)N[C@@H](C)C(=O)N[C@@H](C)C(=O)N[C@@H](CC(C)C)C(=O)N[C@@H](CC(N)=O)C(=O)N[C@@H](CCCNC(=N)N)C(=O)N[C@@H](CC(C)C)C(=O)N[C@@H](CC(C)C)C(=O)N[C@@H](CC(C)C)C(=O)N[C@@H](CCC(=O)O)C(=O)N[C@@H](CCC(=O)O)C(=O)N[C@@H](C)C(N)=O [[Nle^18,21, Arg^23]-AHC(5-41)] (H-PISLDLTFHLLRE[Nle]LE[Nle]ARAEQEAEQAALNRLLLEEA-NH2) | stimulates | very significant lowering of blood pressure
4 | H-SQEPPISLDLTFALLREMLEMAKAEQEAEQAALNRLLLEEA-NH2 [[Ala^13]-AHC] | stimulates | very significant lowering of blood pressure
5 | Ac-PPISLDLTFHLLREVLEMARAEQLAEQAHSNRKYMEEI-NH2 | stimulates | very significant lowering of blood pressure to a greater extent than rCRF
6 | H-SQEPPISLELTFHLLRE[Nle]LE[Nle]AKAEQEAEQAALNRLLLEEA-NH2 [[Glu^9, Nle^18' ^21]-AHC] | stimulates | very significant lowering of blood pressure
7 | CC[C@H](C)[C@H](NC(=O)[C@@H]1CCCN1C(=O)[C@@H]1CCCN1)C(=O)N[C@@H](CO)C(=O)N[C@@H](CC(C)C)C(=O)N[C@@H](CC(=O)O)C(=O)N[C@@H](CC(C)C)C(=O)N[C@H](C(=O)N[C@@H](CC(C)C)C(=O)N[C@@H](Cc1c[nH]cn1)C(=O)N[C@@H](CC(C)C)C(=O)N[C@@H](CC(C)C)C(=O)N[C@@H](CCCNC(=N)N)C(=O)N[C@@H](CCC(=O)O)C(=O)N[C@@H](CCSC)C(=O)N[C@@H](CC(C)C)C(=O)N[C@@H](CCC(=O)O)C(=O)N[C@@H](CCSC)C(=O)N[C@@H](CCC(=O)O)C(=O)N[C@@H](CCCN)C(=O)N[C@@H](C)C(=O)N[C@@H](CCC(=O)O)C(=O)N[C@@H](CCC(N)=O)C(=O)N[C@@H](CCC(=O)O)C(=O)N[C@@H](C)C(=O)N[C@@H](CCC(=O)O)C(=O)N[C@@H](CCC(N)=O)C(=O)N[C@@H](C)C(=O)N[C@@H](C)C(=O)N[C@@H](CC(C)C)C(=O)N[C@@H](CC(N)=O)C(=O)N[C@@H](CCCNC(=N)N)C(=O)N[C@@H](CCCCNC(=N)N)C(=O)N[C@@H](CC(C)C)C(=O)N[C@@H](CC(C)C)C(=O)N[C@@H](CCC(=O)O)C(=O)N[C@@H](CCC(=O)O)C(=O)N[C@@H](C)C(N)=O)[C@@H](C)O (H-PPISLDLTLHLLREMLEME[Orn]AEQEAEQAALNR[hArg]LLEEA-NH2) | stimulates | very significant lowering of blood pressure
8 | H-SQ[dY][dP]PISLDLTFHLLRE[Nle]LE[Nle]AKAEQEAEQAALNRLLLEEA-NH2 [[D-Tyr^3, D-Pro^4, Nle^18, ^21]-AHC] | stimulates | very significant lowering of blood pressure
9 | CC[C@H](C)[C@H](NC(=O)[C@H](CC(=O)O)NC(=O)[C@H](CC(C)C)NC(=O)[C@H](CC(C)C)NC(=O)[C@H](CCCCN)NC(=O)[C@H](CCCNC(=N)N)NC(=O)[C@H](CC(N)=O)NC(=O)[C@H](CO)NC(=O)[C@H](Cc1c[nH]cn1)NC(=O)[C@H](C)NC(=O)[C@H](CCC(N)=O)NC(=O)[C@H](CCC(N)=O)NC(=O)[C@H](C)NC(=O)[C@H](CC(C)C)NC(=O)[C@H](CCC(N)=O)NC(=O)[C@H](CC(=O)O)NC(=O)[C@H](C)NC(=O)[C@H](CCCCN)NC(=O)[C@H](CC(=O)O)NC(=O)[C@H](CCSC)NC(=O)[C@H](CCC(=O)O)NC(=O)[C@H](CC(C)C)NC(=O)[C@@H](NC(=O)[C@H](CCC(=O)O)NC(=O)[C@H](CCCNC(=N)N)NC(=O)[C@H](CC(C)C)NC(=O)[C@H](CC(C)C)NC(=O)[C@H](Cc1c[nH]cn1)NC(=O)[C@H](Cc1ccccc1)NC(=O)[C@@H](NC(=O)[C@H](CC(C)C)NC(=O)[C@H](CC(=O)O)NC(=O)[C@H](CC(C)C)NC(=O)[C@H](CO)NC(=O)[C@@H](NC(=O)[C@H]1CCCN1)[C@@H](C)CC)[C@@H](C)O)C(C)C)C(=O)N[C@@H](C)C(N)=O [[D-Pro^4,Asp^22]-oCRF(4-41)] (H-[dP]ISLDLTFHLLREVLEMDKADQLAQQAHSNRKLLDIA-NH2) | stimulates | very significant lowering of blood pressure
10 | H-SQEPPISLDLTLELLREMLEMAKAEQEAEQAALNRLYLEEA-NH2 [[Leu^12, G1u^13, Tyr^37]-AHC] | stimulates | very significant lowering of blood pressure
11 | CCCC[C@H](NC(=O)[C@H](CCC(=O)O)NC(=O)[C@H](CC(C)C)NC(=O)[C@@H](NC(=O)[C@H](CCC(=O)O)NC(=O)[C@H](CCCNC(=N)N)NC(=O)[C@H](CC(C)C)NC(=O)[C@H](CC(C)C)NC(=O)[C@H](Cc1c[nH]cn1)NC(=O)[C@H](Cc1ccccc1)NC(=O)[C@@H](NC(=O)[C@H](CC(C)C)NC(=O)[C@H](CC(=O)O)NC(=O)[C@H](CC(C)C)NC(=O)[C@H](CO)NC(=O)[C@@H](NC(=O)[C@@H]1CCCN1C(=O)[C@H]1CCCN1)[C@@H](C)CC)[C@@H](C)O)C(C)C)C(=O)N[C@@H](C)C(=O)N[C@@H](CCCNC(=N)N)C(=O)N[C@@H](C)C(=O)N[C@@H](CCC(=O)O)C(=O)N[C@@H](CCC(N)=O)C(=O)N[C@@H](CC(C)C)C(=O)N[C@@H](C)C(=O)N[C@@H](CCC(N)=O)C(=O)N[C@@H](CCC(N)=O)C(=O)N[C@@H](C)C(=O)N[C@@H](Cc1c[nH]cn1)C(=O)N[C@@H](CO)C(=O)N[C@@H](CC(N)=O)C(=O)N[C@@H](CCCNC(=N)N)C(=O)N[C@@H](CCCCN)C(=O)N[C@@H](CC(C)C)C(=O)N[C@@H](CCSC)C(=O)N[C@@H](CCC(=O)O)C(=O)N[C@H](C(=O)N[C@H](C(N)=O)[C@@H](C)CC)[C@@H](C)CC [[D-Pro^4, Nle^21,38]-rCRF(4-41)] (H-[dP]PISLDLTFHLLREVLE[Nle]ARAEQLAQQAHSNRKLMEII-NH2) | stimulates the secretion of ACTH and B-END-LI in an amount greater than oCRF | very significant lowering of blood pressure
